Source: patent publication US20220033434A1, “ANDROGEN RECEPTOR NUCLEIC ACIDS AND USES THEREOF” (Avidity Biosciences, Inc., priority 2016, published 2022)
In the oligonucleotide strings, read from the 5' end, every base follows the letter of its sugar. An asterisk marks phosphorothioate; unmarked linkages are phosphodiester. Other units and linkages are bracketed, terminal groups are in braces. A string of capitals states the bases alone. d = 2'-deoxy (DNA); m = 2'-O-methyl; f = 2'-fluoro

Experiments:
Type in all cases: cell-based, human
[1] = test system: AR FL (full length AR T877A LBD mutant); experiment: AR protein knock-down by Western blot after siRNA transfection in LNCaP cells: AR FL; conditions: 5 nM siRNA, 72 h post transfection, compared to controls
Experimental: (§1) In some instances, a set of AR siRNAs were identified that were predicted to be specific in human and non-human primates (NHP) and cross-reactive with NHPs but not rodent AR mRNA. To identify AR siRNAs that regulate both full length AR and clinically relevant AR splice variants, the search for AR siRNAs was focused primarily, but not exclusively, on exons 1, 2 and 3 of the AR gene, which are common to most AR isoforms. The resulting set of 50 AR siRNAs (Tables 1-3) was assessed in two prostate cancer lines that express high levels of either clinically relevant AR splice variants (22RV1, ATCC) or a full length AR T877A LBD mutant (LNCaP, ATCC). The response of LNCaP tumors in xenograft models to AR antagonists is known to correlate well with clinical responses.
(§2) To monitor their ability to downregulate various AR isoforms, each siRNA was formulated at a single final concentration of 5 nM with a commercially-available transfection reagent (Lipofectamine RNAiMAX, Life Technologies) according to the manufacturer's “forward transfection” instructions. At 50 h (22RV1) and 72 h (LNCaP) post transfection, cells were harvested, and lysed in RIPA buffer (Pierce) supplemented with HALT protease inhibitors (Pierce) using standard procedures. The protein concentration was determined using a BCA protein concentration kit (Pierce). To monitor AR levels in these lysates, proteins (30 ug/lane) were separated by PAGE on BOLT 4-12% Bis-Tris PA gels (Life Technologies), transferred to nitrocellulose using an iBlot dry blot system (Thermo Fisher), and probed with specific antibodies against a region of the N-terminal domain of human AR that is common in known clinically relevant splice variants (N20, Santa Cruz Biotech). A second antibody against α-Tubulin was used as control (P16, Santa Cruz Biotech). Levels of these proteins in the respective cell lysates were quantified on an Odyssey imaging system (LICOR) using appropriate secondary antibodies linked to IRDyes (800CW, 680RD).

AR mRNA [2] = experiment: AR mRNA downregulation by RT-qPCR at 5 nM siRNA in 22RV1 cells; conditions: 24 hrs post-transfection
Experimental: (§3) Focusing on siRNAs targeting AR sequences exons 1 and 2, the ability of these siRNAs to downregulate AR mRNA at a concentration of 5 nM was determined by RT-qPCR. For this purpose, siRNAs were transfected into 22RV1 and LNCaP cells as described above. At 24 hrs post-transfection, RNA was harvested from cells using a Qiagen RNeasy® Plus Mini Kit or Stratec InviTrap® RNA Cell HTS96 kit. The concentration of each isolated RNA was determined via A260 measurement using a NanoDrop spectrophotometer. RNA samples were reverse transcribed to cDNA using the High Capacity RNA to cDNA Kit (Life Technologies) according to the manufacturer's instructions. cDNA samples were then quantified by qPCR using AR-specific probes and results normalized to either endogenous β-actin or PPIB using the standard 2^−ΔΔCt method. These studies identified 6 siRNAs that at a concentration of 5 nM down regulated AR mRNA in 22RV1 and LNCaP cells by more than 80% compared to controls (Table 4).

AR-SV(3) = experiment: AR protein knock-down by Western blot after siRNA transfection in 22RV1 cells: AR-SV(3); conditions: 5 nM siRNA, 50 h post transfection, compared to controls
Experimental: as §1, §2

AR mRNA [3] = experiment: AR mRNA downregulation by RT-qPCR at 5 nM siRNA in LNCaP cells; conditions: 24 hrs post-transfection
Experimental: as §3

AR-SV(2) = experiment: AR protein knock-down by Western blot after siRNA transfection in 22RV1 cells: AR-SV(2); conditions: 5 nM siRNA, 50 h post transfection, compared to controls
Experimental: as §1, §2

AR FL(1) = experiment: AR protein knock-down by Western blot after siRNA transfection in 22RV1 cells: AR FL(1); conditions: 5 nM siRNA, 50 h post transfection, compared to controls
Experimental: as §1, §2

What does the source list for “XD-01813: AR siRNA with chemical modification, Id # 1201; sense X05321 (SEQ ID NO: 151), antisense X05322 (SEQ ID NO: 152) (sense mGmCfGmUfGmCfGmCfGmAfAmGfUmGfAmUfCmCfAdT*dT; antisense fUfGmGfAmUfCmAfCmUfUmCfGmCfGmCfAmCfGmCdT*dT)”?
% KD AR Protein LNCaP AR FL [1]: 98%; % KD AR RNA 22RV1 (AR mRNA [2]): 53%; % KD AR Protein 22RV1 AR-SV(3) (AR-SV(3)): 80%; % KD AR RNA LNCaP (AR mRNA [3]): 66%; % KD AR Protein 22RV1 AR-SV(2) (AR-SV(2)): 77%; % KD AR Protein 22RV1 AR FL(1) (AR FL(1)): 73%

Which “% KD AR Protein LNCaP AR FL” value [1] does the source give for “XD-01816: AR siRNA with chemical modification, Id # 1984; sense X05327 (SEQ ID NO: 157), antisense X05328 (SEQ ID NO: 158) (sense mGmCfAmAfAmGfGmUfUmCfUmCfUmGfCmUfAmGfAdT*dT; antisense fUfCmUfAmGfCmAfGmAfGmAfAmCfCmUfUmUfGmCdT*dT)” here?
The value was 97%.

What about the “% KD AR RNA 22RV1” value (AR mRNA [2]) of the same substance?
Its value is 60%.

What about the “% KD AR Protein 22RV1 AR-SV(3)” value (AR-SV(3)) of the same substance?
The value was 69%.

What about the “% KD AR RNA LNCaP” value (AR mRNA [3]) of the same substance?
The value was 74%.

What about the “% KD AR Protein 22RV1 AR-SV(2)” value (AR-SV(2)) of the same substance?
Its value is 66%.

And the “% KD AR Protein 22RV1 AR FL(1)” value (AR FL(1))?
The value was 57%.

With “XD-01820: AR siRNA with chemical modification, Id # 2189; sense X05335 (SEQ ID NO: 165), antisense X05336 (SEQ ID NO: 166) (sense mGmUfAmCfCmAfGmAfGmUfCmGfCmGfAmCfUmAfCdT*dT; antisense fGfUmAfGmUfCmGfCmGfAmCfUmCfUmGfGmUfAmCdT*dT)” as the substance, how does the “% KD AR Protein LNCaP AR FL” value [1] read?
Its value is 100%.

What about the “% KD AR RNA 22RV1” value (AR mRNA [2]) of the same substance?
The value was 46%.

And the “% KD AR Protein 22RV1 AR-SV(3)” value (AR-SV(3))?
The value was 91%.

And the “% KD AR RNA LNCaP” value (AR mRNA [3])?
The value was 59%.

And the “% KD AR Protein 22RV1 AR-SV(2)” value (AR-SV(2))?
Its value is 91%.

What about the “% KD AR Protein 22RV1 AR FL(1)” value (AR FL(1)) of the same substance?
Its value is 85%.

“XD-01835: AR siRNA with chemical modification, Id # 2924; sense X05365 (SEQ ID NO: 195), antisense X05366 (SEQ ID NO: 196) (sense mUmAfUmUfGmAfUmAfAmAfUmUfCmCfGmAfAmGfGdT*dT; antisense fCfCmUfUmCfGmGfAmAfUmUfUmAfUmCfAmAfUmAdT*dT)” was tested. Which “% KD AR Protein LNCaP AR FL” value [1] did it give?
The value was 92%.

And the “% KD AR Protein 22RV1 AR-SV(3)” value (AR-SV(3))?
The value was 83%.

And the “% KD AR Protein 22RV1 AR-SV(2)” value (AR-SV(2))?
Its value is 85%.

And the “% KD AR Protein 22RV1 AR FL(1)” value (AR FL(1))?
The value was 89%.

For “XD-01846: AR siRNA with chemical modification, Id # 2975; sense X05387 (SEQ ID NO: 217), antisense X05388 (SEQ ID NO: 218) (sense mUmUfAmUfGmAfAmGfCmAfGmGfGmAfUmGfAmCfUdT*dT; antisense fAfGmUfCmAfUmCfCmCfUmGfCmUfUmCfAmUfAmAdT*dT)”, which “% KD AR Protein LNCaP AR FL” value [1] is on record?
Its value is 94%.

And the “% KD AR Protein 22RV1 AR-SV(3)” value (AR-SV(3))?
The value was 76%.

And the “% KD AR Protein 22RV1 AR-SV(2)” value (AR-SV(2))?
The value was 94%.

And the “% KD AR Protein 22RV1 AR FL(1)” value (AR FL(1))?
The value was 87%.

With “XD-01851: AR siRNA with chemical modification, Id # 3217; sense X05397 (SEQ ID NO: 227), antisense X05398 (SEQ ID NO: 228) (sense mUmGfCmUfCmUfCmUfAmGfCmCfUmCfAmAfUmGfAdT*dT; antisense fUfCmAfUmUfGmAfGmGfCmUfAmGfAmGfAmGfCmAdT*dT)” as the substance, how does the “% KD AR Protein LNCaP AR FL” value [1] read?
Its value is 84%.

What about the “% KD AR Protein 22RV1 AR-SV(3)” value (AR-SV(3)) of the same substance?
Its value is 8%.

What about the “% KD AR Protein 22RV1 AR-SV(2)” value (AR-SV(2)) of the same substance?
The value was 2%.

And the “% KD AR Protein 22RV1 AR FL(1)” value (AR FL(1))?
The value was 50%.

Which results are given for “XD-01821: AR siRNA with chemical modification, Id # 2207; sense X05337 (SEQ ID NO: 167), antisense X05338 (SEQ ID NO: 168) (sense mCmUfAmCfAmAfCmUfUmUfCmCfAmCfUmGfGmCfUdT*dT; antisense fAfGmCfCmAfGmUfGmGfAmAfAmGfUmUfGmUfAmGdT*dT)”?
% KD AR Protein LNCaP AR FL [1]: 96%; % KD AR RNA 22RV1 (AR mRNA [2]): 68%; % KD AR Protein 22RV1 AR-SV(3) (AR-SV(3)): 7%; % KD AR RNA LNCaP (AR mRNA [3]): 81%; % KD AR Protein 22RV1 AR-SV(2) (AR-SV(2)): 80%; % KD AR Protein 22RV1 AR FL(1) (AR FL(1)): 73%

With “XD-01844: AR siRNA with chemical modification, Id # 2962; sense X05383 (SEQ ID NO: 213), antisense X05384 (SEQ ID NO: 214) (sense mGmUfCmUfUmCfGmGfAmAfAmUfGmUfUmAfUmGfAdT*dT; antisense fUfCmAfUmAfAmCfAmUfUmUfCmCfGmAfAmGfAmCdT*dT)” as the substance, how does the “% KD AR Protein LNCaP AR FL” value [1] read?
Its value is 81%.

What about the “% KD AR Protein 22RV1 AR-SV(3)” value (AR-SV(3)) of the same substance?
Its value is 26%.

And the “% KD AR Protein 22RV1 AR-SV(2)” value (AR-SV(2))?
The value was 54%.

And the “% KD AR Protein 22RV1 AR FL(1)” value (AR FL(1))?
Its value is 56%.

Which results are given for “XD-01830: AR siRNA with chemical modification, Id # 2824; sense X05355 (SEQ ID NO: 185), antisense X05356 (SEQ ID NO: 186) (sense mGmUfCmAfCmUfAmUfGmGfAmGfCmUfCmUfCmAfCdT*dT; antisense fGfUmGfAmGfAmGfCmUfCmCfAmUfAmGfUmGfAmCdT*dT)”?
% KD AR Protein LNCaP AR FL [1]: 90%; % KD AR Protein 22RV1 AR-SV(3) (AR-SV(3)): 76%; % KD AR Protein 22RV1 AR-SV(2) (AR-SV(2)): 72%; % KD AR Protein 22RV1 AR FL(1) (AR FL(1)): 75%

Which results are given for “XD-01849: AR siRNA with chemical modification, Id # 3105; sense X05393 (SEQ ID NO: 223), antisense X05394 (SEQ ID NO: 224) (sense mCmAfCmAfUmUfGmAfAmGfGmCfUmAfUmGfAmAfUdT*dT; antisense fAfUmUfCmAfUmAfGmCfCmUfUmCfAmAfUmGfUmGdT*dT)”?
% KD AR Protein LNCaP AR FL [1]: 92%; % KD AR Protein 22RV1 AR-SV(3) (AR-SV(3)): −40%; % KD AR Protein 22RV1 AR-SV(2) (AR-SV(2)): 7%; % KD AR Protein 22RV1 AR FL(1) (AR FL(1)): 86%
